# Measurements reported in ChEMBL document CHEMBL5291721, “A preclinical secondary pharmacology resource illuminates target-adverse drug reaction associations of marketed drugs” (Nat Commun, 2023).
# How the values were obtained:
# Motilin receptor = Motilin receptor (Homo sapiens, UniProt O43193)
# Vasopressin V2 receptor = Vasopressin V2 receptor (Homo sapiens, UniProt P30518)
# [1] = molecular target: Neuronal acetylcholine receptor subunit alpha-4 (Homo sapiens, UniProt P43681)
# Adenosine receptor A3 = molecular target: T1, Adenosine receptor A3 (Homo sapiens, UniProt P0DMS8)
# T1 sequence (P0DMS8 whole entry): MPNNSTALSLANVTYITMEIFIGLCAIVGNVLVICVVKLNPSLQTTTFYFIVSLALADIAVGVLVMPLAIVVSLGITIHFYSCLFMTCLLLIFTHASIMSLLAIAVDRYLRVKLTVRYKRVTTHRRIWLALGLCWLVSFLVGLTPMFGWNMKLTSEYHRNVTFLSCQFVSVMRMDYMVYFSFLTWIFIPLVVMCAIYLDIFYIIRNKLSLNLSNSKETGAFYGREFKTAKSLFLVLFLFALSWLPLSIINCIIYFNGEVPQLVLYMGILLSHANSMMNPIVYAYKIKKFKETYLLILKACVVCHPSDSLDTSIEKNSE
# D(1A) dopamine receptor = D(1A) dopamine receptor (Homo sapiens, UniProt P21728); assay type: functional, cell-based
# [2] = molecular target: 3',5'-cyclic-AMP phosphodiesterase 4D (Homo sapiens, UniProt Q08499); assay type: functional
# Thromboxane A2 receptor [3] = molecular target: T2, Thromboxane A2 receptor (Homo sapiens, UniProt P21731)
# T2 sequence (P21731 whole entry): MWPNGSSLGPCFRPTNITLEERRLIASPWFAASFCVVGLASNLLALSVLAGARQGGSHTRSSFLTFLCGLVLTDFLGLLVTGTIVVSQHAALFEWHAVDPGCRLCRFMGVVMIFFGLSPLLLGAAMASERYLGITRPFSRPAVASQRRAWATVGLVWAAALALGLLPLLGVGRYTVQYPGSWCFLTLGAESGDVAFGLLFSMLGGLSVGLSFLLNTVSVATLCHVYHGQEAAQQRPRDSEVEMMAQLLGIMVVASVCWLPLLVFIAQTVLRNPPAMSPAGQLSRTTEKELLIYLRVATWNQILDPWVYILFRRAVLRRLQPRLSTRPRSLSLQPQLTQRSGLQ
# Melanocortin receptor 3 = Melanocortin receptor 3 (Homo sapiens, UniProt P41968)
# Cannabinoid receptor 1 = Cannabinoid receptor 1 (Homo sapiens, UniProt P21554); assay type: functional, cell-based
# [4] = molecular target: Sodium-dependent dopamine transporter (Homo sapiens, UniProt Q01959)
# Mu-type opioid receptor = Mu-type opioid receptor (Homo sapiens, UniProt P35372)
# [5] = molecular target: T3, Equilibrative nucleoside transporter 1 (Homo sapiens, UniProt Q99808)
# T3 sequence (Q99808 whole entry): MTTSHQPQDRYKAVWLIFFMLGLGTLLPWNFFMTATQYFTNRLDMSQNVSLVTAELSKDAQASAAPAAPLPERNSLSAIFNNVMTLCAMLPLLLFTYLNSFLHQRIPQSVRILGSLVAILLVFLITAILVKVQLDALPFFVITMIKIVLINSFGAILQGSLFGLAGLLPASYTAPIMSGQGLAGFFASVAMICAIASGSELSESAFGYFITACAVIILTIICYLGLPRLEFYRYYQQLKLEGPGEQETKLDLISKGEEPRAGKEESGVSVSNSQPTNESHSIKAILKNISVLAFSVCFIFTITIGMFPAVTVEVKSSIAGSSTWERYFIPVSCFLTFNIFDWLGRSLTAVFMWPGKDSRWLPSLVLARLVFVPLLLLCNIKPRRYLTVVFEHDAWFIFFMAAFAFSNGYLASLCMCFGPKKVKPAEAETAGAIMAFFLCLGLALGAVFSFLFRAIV
# [6] = molecular target: Voltage-gated inwardly rectifying potassium channel KCNH2 (Homo sapiens, UniProt Q12809); assay type: functional; conditions: read-out: AC50
# [7] = molecular target: T4, 5-hydroxytryptamine receptor 3A (Homo sapiens, UniProt P46098); assay type: functional
# T4 sequence (P46098 whole entry): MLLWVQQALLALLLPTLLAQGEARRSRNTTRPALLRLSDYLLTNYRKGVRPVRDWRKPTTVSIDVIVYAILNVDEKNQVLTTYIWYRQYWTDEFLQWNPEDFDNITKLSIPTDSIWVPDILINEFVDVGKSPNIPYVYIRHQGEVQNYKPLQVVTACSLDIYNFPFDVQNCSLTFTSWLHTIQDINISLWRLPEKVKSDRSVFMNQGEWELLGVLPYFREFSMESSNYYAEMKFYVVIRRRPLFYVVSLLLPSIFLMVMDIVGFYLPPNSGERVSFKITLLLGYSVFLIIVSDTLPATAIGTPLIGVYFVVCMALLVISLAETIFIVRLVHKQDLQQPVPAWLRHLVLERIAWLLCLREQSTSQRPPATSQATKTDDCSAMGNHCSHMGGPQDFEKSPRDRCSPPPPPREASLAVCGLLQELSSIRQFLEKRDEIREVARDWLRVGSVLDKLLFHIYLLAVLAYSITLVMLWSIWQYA
# [8] = molecular target: T5, Amine oxidase [flavin-containing] A (Homo sapiens, UniProt P21397); assay type: functional
# T5 sequence (P21397 whole entry): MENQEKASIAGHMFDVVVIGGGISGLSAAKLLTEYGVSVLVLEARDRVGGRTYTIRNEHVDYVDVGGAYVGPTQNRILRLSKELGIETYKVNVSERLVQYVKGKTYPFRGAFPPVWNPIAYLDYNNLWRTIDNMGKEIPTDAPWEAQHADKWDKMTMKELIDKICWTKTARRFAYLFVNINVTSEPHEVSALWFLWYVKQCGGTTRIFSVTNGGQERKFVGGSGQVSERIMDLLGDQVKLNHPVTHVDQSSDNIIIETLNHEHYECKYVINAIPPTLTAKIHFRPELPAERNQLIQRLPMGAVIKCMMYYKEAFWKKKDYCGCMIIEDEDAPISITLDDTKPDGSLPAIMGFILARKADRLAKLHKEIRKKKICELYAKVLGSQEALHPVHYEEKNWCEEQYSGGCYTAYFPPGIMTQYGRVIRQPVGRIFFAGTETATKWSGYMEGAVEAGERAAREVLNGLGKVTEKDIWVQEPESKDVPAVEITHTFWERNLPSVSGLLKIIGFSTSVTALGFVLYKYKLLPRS
# Thromboxane A2 receptor [9] = molecular target: T2, Thromboxane A2 receptor; assay type: functional, cell-based
# Also: assay procedure not described here.
# Chain of Sodium-dependent dopamine transporter (Q01959 whole entry): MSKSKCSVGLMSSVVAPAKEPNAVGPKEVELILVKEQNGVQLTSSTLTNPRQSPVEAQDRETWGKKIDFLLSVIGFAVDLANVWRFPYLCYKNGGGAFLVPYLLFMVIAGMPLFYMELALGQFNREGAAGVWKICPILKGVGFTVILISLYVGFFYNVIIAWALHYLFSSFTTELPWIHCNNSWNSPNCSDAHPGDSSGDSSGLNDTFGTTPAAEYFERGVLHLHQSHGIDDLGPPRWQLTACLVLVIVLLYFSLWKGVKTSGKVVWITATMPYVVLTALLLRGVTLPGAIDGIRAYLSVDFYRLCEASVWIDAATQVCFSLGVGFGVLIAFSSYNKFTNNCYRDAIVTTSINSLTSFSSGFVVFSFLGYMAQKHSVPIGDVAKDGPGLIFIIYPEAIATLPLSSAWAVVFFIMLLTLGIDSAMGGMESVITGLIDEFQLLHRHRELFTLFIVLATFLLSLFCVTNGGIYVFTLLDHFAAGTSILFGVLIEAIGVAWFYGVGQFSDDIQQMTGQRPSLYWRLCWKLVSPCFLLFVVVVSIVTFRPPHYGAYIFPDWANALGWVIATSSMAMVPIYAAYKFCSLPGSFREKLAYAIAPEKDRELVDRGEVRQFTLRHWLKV
# Chain of Neuronal acetylcholine receptor subunit alpha-4 (P43681 whole entry): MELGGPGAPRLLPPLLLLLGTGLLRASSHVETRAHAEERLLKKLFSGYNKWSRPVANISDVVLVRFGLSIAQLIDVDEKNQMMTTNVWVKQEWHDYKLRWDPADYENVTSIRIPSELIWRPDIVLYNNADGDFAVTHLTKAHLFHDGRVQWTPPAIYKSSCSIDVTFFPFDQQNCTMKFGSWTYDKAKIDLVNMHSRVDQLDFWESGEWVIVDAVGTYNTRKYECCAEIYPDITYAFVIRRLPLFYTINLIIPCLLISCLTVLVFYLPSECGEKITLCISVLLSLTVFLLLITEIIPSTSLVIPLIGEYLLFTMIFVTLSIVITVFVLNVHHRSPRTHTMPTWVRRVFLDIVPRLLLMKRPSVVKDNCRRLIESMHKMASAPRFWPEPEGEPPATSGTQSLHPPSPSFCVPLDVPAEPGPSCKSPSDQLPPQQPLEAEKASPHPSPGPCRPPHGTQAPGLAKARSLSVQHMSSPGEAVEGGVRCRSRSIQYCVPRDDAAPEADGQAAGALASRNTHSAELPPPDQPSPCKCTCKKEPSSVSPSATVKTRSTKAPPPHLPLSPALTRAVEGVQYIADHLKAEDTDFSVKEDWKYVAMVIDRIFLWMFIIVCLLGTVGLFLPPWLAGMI
# Chain of Melanocortin receptor 3 (P41968 whole entry): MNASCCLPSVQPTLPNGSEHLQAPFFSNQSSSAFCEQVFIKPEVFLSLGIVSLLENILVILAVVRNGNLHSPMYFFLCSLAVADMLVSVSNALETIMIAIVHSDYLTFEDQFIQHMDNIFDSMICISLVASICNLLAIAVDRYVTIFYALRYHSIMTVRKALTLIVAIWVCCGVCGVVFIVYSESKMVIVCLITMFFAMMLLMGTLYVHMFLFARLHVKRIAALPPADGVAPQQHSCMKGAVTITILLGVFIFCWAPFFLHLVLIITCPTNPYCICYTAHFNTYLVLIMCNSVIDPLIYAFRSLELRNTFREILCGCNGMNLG
# Chain of Vasopressin V2 receptor (P30518 whole entry): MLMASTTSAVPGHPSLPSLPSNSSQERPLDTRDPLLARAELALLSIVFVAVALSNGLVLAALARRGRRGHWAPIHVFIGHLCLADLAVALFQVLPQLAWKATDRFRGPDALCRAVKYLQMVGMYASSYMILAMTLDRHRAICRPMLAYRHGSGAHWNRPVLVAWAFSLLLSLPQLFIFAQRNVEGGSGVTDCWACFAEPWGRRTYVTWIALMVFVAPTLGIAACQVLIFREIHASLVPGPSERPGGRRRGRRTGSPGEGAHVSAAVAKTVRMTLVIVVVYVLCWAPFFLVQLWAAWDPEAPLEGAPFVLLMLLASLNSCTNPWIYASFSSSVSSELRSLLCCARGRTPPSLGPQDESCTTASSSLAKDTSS
# Chain of Voltage-gated inwardly rectifying potassium channel KCNH2 (Q12809 whole entry): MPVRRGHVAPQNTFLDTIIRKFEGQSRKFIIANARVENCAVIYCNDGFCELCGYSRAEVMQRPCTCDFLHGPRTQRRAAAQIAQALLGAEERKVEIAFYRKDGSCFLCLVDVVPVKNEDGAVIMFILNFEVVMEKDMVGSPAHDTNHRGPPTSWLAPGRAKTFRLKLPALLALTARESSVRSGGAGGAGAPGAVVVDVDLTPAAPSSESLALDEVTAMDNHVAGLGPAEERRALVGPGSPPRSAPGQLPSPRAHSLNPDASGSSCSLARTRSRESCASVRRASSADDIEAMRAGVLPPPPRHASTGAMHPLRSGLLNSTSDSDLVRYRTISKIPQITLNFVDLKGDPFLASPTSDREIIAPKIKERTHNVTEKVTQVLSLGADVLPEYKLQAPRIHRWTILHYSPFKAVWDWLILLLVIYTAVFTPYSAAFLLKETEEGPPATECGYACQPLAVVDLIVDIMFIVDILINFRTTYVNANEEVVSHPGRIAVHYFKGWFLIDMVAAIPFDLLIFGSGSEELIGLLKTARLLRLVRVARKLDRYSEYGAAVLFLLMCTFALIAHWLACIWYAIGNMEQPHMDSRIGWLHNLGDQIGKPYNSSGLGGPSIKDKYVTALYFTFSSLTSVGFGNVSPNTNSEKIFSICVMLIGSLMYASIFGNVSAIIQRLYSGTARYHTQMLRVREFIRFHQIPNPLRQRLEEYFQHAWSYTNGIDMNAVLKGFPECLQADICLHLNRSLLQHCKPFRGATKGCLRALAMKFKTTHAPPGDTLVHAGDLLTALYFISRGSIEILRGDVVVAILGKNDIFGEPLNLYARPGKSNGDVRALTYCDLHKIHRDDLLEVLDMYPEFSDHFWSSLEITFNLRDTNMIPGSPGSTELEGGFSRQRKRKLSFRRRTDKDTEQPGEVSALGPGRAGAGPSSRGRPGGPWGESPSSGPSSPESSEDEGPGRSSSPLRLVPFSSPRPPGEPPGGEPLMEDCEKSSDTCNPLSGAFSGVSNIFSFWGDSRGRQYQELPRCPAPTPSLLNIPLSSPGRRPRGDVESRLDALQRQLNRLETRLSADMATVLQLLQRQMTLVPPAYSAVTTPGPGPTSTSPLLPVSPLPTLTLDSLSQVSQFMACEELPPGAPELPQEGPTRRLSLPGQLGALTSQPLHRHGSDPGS
# Chain of D(1A) dopamine receptor (P21728 whole entry): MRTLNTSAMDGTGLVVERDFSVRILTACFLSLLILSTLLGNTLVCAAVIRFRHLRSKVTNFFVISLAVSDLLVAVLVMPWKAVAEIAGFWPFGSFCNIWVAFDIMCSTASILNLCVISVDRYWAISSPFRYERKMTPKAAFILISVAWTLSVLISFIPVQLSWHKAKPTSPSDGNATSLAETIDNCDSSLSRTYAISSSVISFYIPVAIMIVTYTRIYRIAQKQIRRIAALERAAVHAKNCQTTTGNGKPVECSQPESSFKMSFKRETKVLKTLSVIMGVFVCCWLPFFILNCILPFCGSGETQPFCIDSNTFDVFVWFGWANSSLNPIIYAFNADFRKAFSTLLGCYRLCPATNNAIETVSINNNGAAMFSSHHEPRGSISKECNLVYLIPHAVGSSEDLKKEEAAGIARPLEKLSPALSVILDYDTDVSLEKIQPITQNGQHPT
# Chain of Cannabinoid receptor 1 (P21554 whole entry): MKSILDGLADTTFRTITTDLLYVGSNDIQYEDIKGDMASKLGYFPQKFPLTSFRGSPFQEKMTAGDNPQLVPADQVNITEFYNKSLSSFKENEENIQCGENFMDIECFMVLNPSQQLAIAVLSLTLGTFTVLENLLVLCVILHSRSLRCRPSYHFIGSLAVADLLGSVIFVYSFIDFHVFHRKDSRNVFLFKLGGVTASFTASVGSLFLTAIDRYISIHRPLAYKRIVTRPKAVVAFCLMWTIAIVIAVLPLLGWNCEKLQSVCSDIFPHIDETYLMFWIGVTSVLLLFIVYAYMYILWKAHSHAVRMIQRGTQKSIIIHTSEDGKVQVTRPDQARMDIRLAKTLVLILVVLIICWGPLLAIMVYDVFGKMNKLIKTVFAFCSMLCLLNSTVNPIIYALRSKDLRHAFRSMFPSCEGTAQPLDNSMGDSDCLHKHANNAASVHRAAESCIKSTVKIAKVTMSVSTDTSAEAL
# Chain of 3',5'-cyclic-AMP phosphodiesterase 4D (Q08499 whole entry): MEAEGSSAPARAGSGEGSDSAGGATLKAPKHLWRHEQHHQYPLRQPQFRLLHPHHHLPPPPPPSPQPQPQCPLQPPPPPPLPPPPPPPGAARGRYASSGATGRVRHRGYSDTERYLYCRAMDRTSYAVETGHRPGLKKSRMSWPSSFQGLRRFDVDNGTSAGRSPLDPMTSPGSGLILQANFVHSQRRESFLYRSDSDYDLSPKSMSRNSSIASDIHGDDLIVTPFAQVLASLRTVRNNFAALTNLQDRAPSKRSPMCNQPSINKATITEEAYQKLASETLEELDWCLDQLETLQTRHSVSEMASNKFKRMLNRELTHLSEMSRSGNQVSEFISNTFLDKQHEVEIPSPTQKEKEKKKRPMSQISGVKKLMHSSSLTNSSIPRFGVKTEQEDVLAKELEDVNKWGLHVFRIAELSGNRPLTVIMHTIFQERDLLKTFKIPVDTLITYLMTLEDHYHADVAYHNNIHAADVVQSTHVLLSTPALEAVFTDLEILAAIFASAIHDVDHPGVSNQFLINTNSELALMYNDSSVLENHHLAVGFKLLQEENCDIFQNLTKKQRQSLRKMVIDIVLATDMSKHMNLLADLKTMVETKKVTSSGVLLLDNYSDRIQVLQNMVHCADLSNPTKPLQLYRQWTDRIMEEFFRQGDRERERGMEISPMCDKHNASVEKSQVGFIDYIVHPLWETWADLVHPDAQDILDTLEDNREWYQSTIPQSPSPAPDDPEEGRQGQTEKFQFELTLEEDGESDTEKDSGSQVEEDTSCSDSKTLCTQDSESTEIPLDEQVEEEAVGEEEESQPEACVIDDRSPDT
Structure (SMILES),AC50 (Motilin receptor) [µM],AC50 (Vasopressin V2 receptor) [µM],AC50 [1] [µM],AC50 (Adenosine receptor A3) [µM],AC50 (D(1A) dopamine receptor) [µM],AC50 [2] [µM],AC50 (Thromboxane A2 receptor [3]) [µM],AC50 (Melanocortin receptor 3) [µM],AC50 (Cannabinoid receptor 1) [µM],AC50 [4] [µM],AC50 (Mu-type opioid receptor) [µM],AC50 [5] [µM],AC50 [6] [µM],AC50 [7] [µM],AC50 [8] [µM],AC50 (Thromboxane A2 receptor [9]) [µM]
Clc1ccc2nsnc2c1NC1=NCCN1 [TIZANIDINE],> 10,> 30,> 10,> 30,> 10,> 30,> 30,> 30,> 30,> 10,> 30,> 30,> 30,> 30,,
Cc1cccc(Nc2ccccc2C(=O)O)c1C [MEFENAMIC ACID],> 10,> 10,> 10,> 10,> 10,> 30,> 10,> 10,,> 10,> 30,> 10,> 30,> 30,> 30,> 30
CCOC(=O)[C@H](CCc1ccccc1)N[C@@H](C)C(=O)N1[C@H](C(=O)O)C[C@@H]2CCC[C@@H]21,> 10,> 30,> 10,> 30,> 10,> 30,> 30,> 30,> 30,> 10,> 30,> 30,> 30,> 30,,
C[C@@H](O)[C@H]1C(=O)N2C(C(=O)O)=C(S[C@@H]3CN[C@H](C(=O)N(C)C)C3)[C@H](C)[C@H]12 [MEROPENEM],> 300,> 10,> 300,> 300,> 300,> 300,> 10,> 300,> 300,> 300,> 300,> 300,> 30,> 300,,
C1CCC(C(CC2CCCCN2)C2CCCCC2)CC1 (stereo not given) [PERHEXILINE],29,,> 3,14.1,> 30,> 30,,8.28,> 30,7.05,16,> 30,,> 30,,
C[C@H]1CNCCc2ccc(Cl)cc21 [LORCASERIN],> 30,,> 30,> 30,> 30,> 30,,> 30,> 30,> 30,> 30,> 30,6.5,> 30,,
CCCN1C[C@H](CSC)C[C@@H]2c3cccc4[nH]cc(c34)C[C@H]21 [PERGOLIDE],> 30,> 30,> 30,> 30,,> 30,> 30,> 30,> 30,14.9,> 30,> 30,0.22,> 30,,
C[C@]12CCC(=O)C=C1CC[C@@H]1[C@@H]2[C@@H](O)C[C@@]2(C)[C@H]1CC[C@]2(O)C(=O)CO [HYDROCORTISONE],> 10,> 30,> 10,> 30,> 10,> 30,> 30,> 30,> 30,> 10,> 30,> 30,> 30,> 30,,
c1ccc([C@H]2CN3CCSC3=N2)cc1 [LEVAMISOLE],> 30,,> 30,> 30,1.6,> 30,> 30,> 30,> 30,> 30,> 30,> 30,18.8,> 30,,
Clc1ccc(C(c2ccccc2Cl)C(Cl)Cl)cc1 (stereo not given) [MITOTANE],> 10,> 10,> 10,> 10,> 10,> 30,> 10,> 10,,> 10,> 30,> 10,> 30,> 30,,
N[C@@H]1[C@H]2CN(c3nc4c(cc3F)c(=O)c(C(=O)O)cn4-c3ccc(F)cc3F)C[C@@H]12 [TROVAFLOXACIN],> 30,,> 30,> 30,> 30,> 30,,> 30,> 30,> 30,> 30,> 30,> 30,> 30,,
CCC(C)n1ncn(-c2ccc(N3CCN(c4ccc(OCC5COC(Cn6cncn6)(c6ccc(Cl)cc6Cl)O5)cc4)CC3)cc2)c1=O (stereo not given) [ITRACONAZOLE],> 30,> 30,> 30,> 30,> 30,18,> 30,> 30,> 30,> 30,> 10,> 30,> 30,> 30,,
CN(C)CCC(c1ccc(Cl)cc1)c1ccccn1 (stereo not given) [CHLORPHENIRAMINE],> 10,> 30,> 10,> 30,> 10,> 10,> 30,> 30,> 30,1.46,> 10,> 30,,> 10,,
Cc1ccc(-c2cc(C(F)(F)F)nn2-c2ccc(S(N)(=O)=O)cc2)cc1 [CELECOXIB],> 10,> 30,> 10,9.14,> 10,20,> 10,> 10,> 30,5.86,> 30,24.4,,> 30,,
